{"source": "patent US20240285552A1", "about": "(priority 2020, published 2024)", "key": {"[1]": {"tested_on": "SARS-CoV-2 USA_WA1/2020", "settings": "hamster"}, "[2]": {"tested_on": "SARS-CoV-2 spike pseudotyped lentivirus", "test": "microbe, parasite or virus in culture", "format": "cell-based"}, "[3]": {"tested_on": "ACE2", "test": "Western blotting, ACE2 expression in A549 cells", "format": "cell-based, human", "settings": "50 μm, 24 hrs and 48 hrs", "description": "Western blotting. A549 “Lung” cells (RRID:CVCL_COQ5) were harvested in a radioimmuno precipitation assay (RIPA) buffer (Tris 10 mM pH 7.4, containing 140 mM NaCl, 1 mM EDTA, 1 mM NaF, 0.10% SDS, 0.50% sodium deoxycholate 0.1% NP-40, 1% Triton X-100) in the presence of protease inhibitors (Thermo Fisher) at 24 hrs. and 48 hrs. Protein concentration was determined by was determined using bicinchoninic acid with bovine serum albumin as a standard (Thermo Fisher). Equal amounts of protein were loaded and separated by SDS-PAGE using 10% pre-casted gels (Biorad). Proteins were electroblotted onto nitrocellulose membranes (Bio-Rad). The blots were blocked using 5% (w/v) milk in Tris-buffered saline containing 0.5% (v/v) Tween-20. The membranes were then incubated with different antibodies. Antibodies directed against ACE1 (ab28311) and ACE2 (ab108209) were used and the GAPDH antibody was used as loading control for cell lysates. Primary and secondary antibodies were diluted in Tris-buffered saline containing (0.5% v/v) Tween-20 (TBS-T) supplemented with 5% milk. The bands were visualized by incubating the blots with enhanced chemiluminescence reagent (ECL, Biorad) and visualized using chemidoc. Band intensities were quantified by using imagelab software Biorad."}, "[4]": {"test": "in vitro", "settings": "African green monkey"}, "[5]": {"tested_on": "Vero E6 cells", "settings": "Vero E6"}, "[6]": {"target": "T1, rhACE2 and SARS-CoV-2 Spike (RBD) protein interaction (Homo sapiens, UniProt Q9BYF1)", "T1 construct": "purchased RayBiotech CoV-SACE2-1", "T1 sequence (Q9BYF1 18-740)": "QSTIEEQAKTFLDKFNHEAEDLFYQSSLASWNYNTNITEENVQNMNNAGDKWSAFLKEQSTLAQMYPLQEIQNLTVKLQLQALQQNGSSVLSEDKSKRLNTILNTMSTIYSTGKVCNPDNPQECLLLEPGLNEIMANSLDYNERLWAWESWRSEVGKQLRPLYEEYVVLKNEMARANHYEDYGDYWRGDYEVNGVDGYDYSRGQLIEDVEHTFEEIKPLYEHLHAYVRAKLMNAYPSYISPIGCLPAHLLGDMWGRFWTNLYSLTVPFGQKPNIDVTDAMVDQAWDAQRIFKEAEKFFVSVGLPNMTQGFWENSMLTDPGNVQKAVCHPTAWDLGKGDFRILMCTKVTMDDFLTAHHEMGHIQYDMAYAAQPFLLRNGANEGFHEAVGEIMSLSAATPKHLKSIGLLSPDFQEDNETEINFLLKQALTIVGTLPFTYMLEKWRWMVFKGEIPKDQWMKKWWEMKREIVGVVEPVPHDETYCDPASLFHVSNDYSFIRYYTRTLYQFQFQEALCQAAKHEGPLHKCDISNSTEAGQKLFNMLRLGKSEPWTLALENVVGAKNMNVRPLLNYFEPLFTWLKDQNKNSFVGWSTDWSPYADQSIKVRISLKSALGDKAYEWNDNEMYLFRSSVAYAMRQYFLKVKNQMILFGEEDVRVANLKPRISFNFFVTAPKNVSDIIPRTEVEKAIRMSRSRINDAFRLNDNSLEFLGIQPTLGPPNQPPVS", "test": "Spike (RBD)-ACE2 binding assay (ELISA)", "design": "species or system human; SARS-CoV-2", "settings": "for IC50: bell-shaped model, AMB, BHH"}, "[7]": {"tested_on": "SARS-CoV-2 USA_WA1/2020", "test": "microbe, parasite or virus in culture", "format": "cell-based"}}, "note": "“And” between values parts separate entries of the source, which are not always exact repeats. Equal entries are not always repeated. “Also recorded” adds a separate entry of the source. Structures can show the parent of a compound that is named as a salt. Where two headings read alike, the source gives them in different places."}
{"smiles": "Nc1c(Br)cc(Br)cc1CN[C@H]1CC[C@H](O)CC1", "note": "[AMB, 4-[(2-amino-3,5-dibromophenyl)methylamino]cyclohexan-1-ol; hydrochloride]", "values": [{"measurement": "Overall Gmean Days 1-4 lower than Group 3, E sgRNA, pharyngeal swabs", "setting": "[1]; AMB 500, BHH 200 mg/kg/day PO", "result": 5, "unit": "fold"}, {"measurement": "Overall Gmean Days 1-4 viral load lower than Group 3, N2 gRNA, pharyngeal swabs", "setting": "[1]; AMB 500, BHH 200 mg/kg/day PO", "result": 4, "unit": "fold"}, {"measurement": "Overall Gmean viral load Days 1-4, N2 gRNA, pharyngeal swabs", "setting": "[1]; AMB 500, BHH 200 mg/kg/day PO", "result": "4.93E+07", "unit": "copies/swab"}, {"measurement": "Peak viral load lower than vehicle (Group 3), N2 gRNA, pharyngeal swabs", "setting": "[1]; AMB 500, BHH 200 mg/kg/day PO", "result": 16, "unit": "fold"}, {"measurement": "Peak viral replication load lower than Group 3, E sgRNA, pharyngeal swabs", "setting": "[1]; AMB 500, BHH 200 mg/kg/day PO", "result": 34, "unit": "fold"}, {"measurement": "Peak viral load, N2 gRNA, pharyngeal swabs", "setting": "[1]; AMB 500, BHH 200 mg/kg/day PO, peak Day 2 (AMB), Day 1 (BHH)", "result": "9.01E+06", "unit": "copies/swab"}, {"measurement": "Peak viral replication load, E sgRNA, rectal swabs", "setting": "[1]; peak Day 1 (AMB), Day 2 (BHH)", "result": 20.15, "unit": "copies/swab"}, {"measurement": "Peak viral replication load, E sgRNA, pharyngeal swabs", "setting": "[1]; peak Day 2 (AMB), Day 1 (BHH)", "result": "2.79E+04", "unit": "copies/swab"}, {"measurement": "Peak viral load, N2 gRNA, rectal swabs", "setting": "[1]; peak on Day 2", "result": "9.75E+04", "unit": "copies/swab"}, {"measurement": "Percent Inhibition of fusion of SARS-CoV-2 spike pseudotyped lentivirus with HEK293-ACE2 cells", "setting": "[2]; 10 μM, Table 3, hydrochloride", "result": "86% and 55%"}, {"measurement": "Percent Inhibition of fusion of SARS-CoV-2 spike pseudotyped lentivirus with HEK293-ACE2 cells", "setting": "[2]; 25 μM, Table 3, hydrochloride", "result": 64, "unit": "%"}, {"measurement": "Percent (%) Inhibition of Pseudo virus Entry in HEK293 Kidney Cells, SARS-COV-2", "setting": "[2]; 50 μM, Table 2, hydrochloride", "result": 46, "unit": "%"}, {"measurement": "Percent Inhibition of fusion of SARS-CoV-2 spike pseudotyped lentivirus with HEK293-ACE2 cells", "setting": "[2]; 50 μM, Table 3, hydrochloride", "result": 59, "unit": "%"}, {"measurement": "Percent Inhibition of fusion of SARS-CoV-2 spike pseudotyped lentivirus with HEK293-ACE2 cells", "setting": "[2]; 100 μM, Table 3, hydrochloride", "result": 47, "unit": "%"}, {"measurement": "inhibition at 25 µM", "setting": "[2]; Severe acute respiratory syndrome coronavirus 2, 25 μM, Table 3, read-out: Percent Inhibition of fusion of SARS-CoV-2 spike pseudotyped lentivirus with HEK293-ACE2 cells", "result": 78, "unit": "%"}, {"measurement": "inhibition at 50 µM", "setting": "[2]; Severe acute respiratory syndrome coronavirus 2, 50 μM, Table 3, read-out: Percent Inhibition of fusion of SARS-CoV-2 spike pseudotyped lentivirus with HEK293-ACE2 cells", "result": 72, "unit": "%"}, {"measurement": "inhibition at 100 µM", "setting": "[2]; Severe acute respiratory syndrome coronavirus 2, 100 μM, Table 3, read-out: Percent Inhibition of fusion of SARS-CoV-2 spike pseudotyped lentivirus with HEK293-ACE2 cells", "result": 41, "unit": "%"}, {"measurement": "inhibition at 10 µM", "setting": "[2]; Severe acute respiratory syndrome coronavirus 2, HEK293, 10 μM, Table 2, read-out: Percent (%) Inhibition of Pseudo virus Entry in HEK293 Kidney Cells, SARS-COV-2", "result": 2, "unit": "%"}, {"measurement": "inhibition at 25 µM", "setting": "[2]; Severe acute respiratory syndrome coronavirus 2, HEK293, 25 μM, Table 2, read-out: Percent (%) Inhibition of Pseudo virus Entry in HEK293 Kidney Cells, SARS-COV-2", "result": 12, "unit": "%"}, {"measurement": "inhibition at 50 µM", "setting": "[2]; Severe acute respiratory syndrome coronavirus 2, HEK293, 50 μM, Table 2, read-out: Percent (%) Inhibition of Pseudo virus Entry in HEK293 Kidney Cells, SARS-COV-2", "result": "~50", "unit": "%"}, {"measurement": "inhibition at 100 µM", "setting": "[2]; Severe acute respiratory syndrome coronavirus 2, HEK293, 100 μM, Table 2, read-out: Percent (%) Inhibition of Pseudo virus Entry in HEK293 Kidney Cells, SARS-COV-2", "result": 89, "unit": "%"}, {"measurement": "change of ACE2 expression", "setting": "[3]", "result": "no changes"}, {"measurement": "CC50 at 72 h", "setting": "[4]; 50% cytotoxic concentration (CC50), Vero E6, 72 hours, Examples A and B, highest concentration 30 μM", "result": "> 30", "unit": "µM"}, {"measurement": "CC50 at 72 h", "setting": "[4]; Cytotoxicity CC50, Vero E6, 72 hours, Example C (Table 4)", "result": 184, "unit": "µM"}, {"measurement": "Conc. at Max. % Viability", "setting": "[5]; Example C (Table 4)", "result": 0.59, "unit": "µM"}, {"measurement": "Conc. at Min. % Viability", "setting": "[5]; Example C (Table 4)", "result": 300, "unit": "µM"}, {"measurement": "Min. Viability", "setting": "[5]; Example C (Table 4)", "result": 0.55, "unit": "%"}, {"measurement": "Max. Viability", "setting": "[5]; Example C (Table 4), hydrochloride", "result": "96% and 96.64%"}, {"measurement": "percent minimum viability", "setting": "[5]; at 30 μM, Example B", "result": 113.95, "unit": "%"}, {"measurement": "effect on Spike (RBD)-rhACE2 interaction", "setting": "[6]; 100 μM to 100 nM, hydrochloride", "result": "did not produce a stimulation or enhancement of binding; also recorded: more potent at disrupting the interaction between ACE2 and RBD than BHH"}, {"measurement": "IC50", "setting": "[6]; highest tested 100 μM, read-out: Estimated Relative IC50 against rhACE2 and RBD Interaction Assay, IC50_2", "result": 232, "unit": "µM"}, {"measurement": "IC50", "setting": "[6]; read-out: Estimated Relative IC50 against rhACE2 and RBD Interaction Assay, IC50_1", "result": 0.82, "unit": "µM"}, {"measurement": "Concentration at Maximum % Inhibition", "setting": "[7]; Example C (Table 3)", "result": 150, "unit": "µM"}, {"measurement": "Maximum Inhibition", "setting": "[7]; Example C (Table 3)", "result": 49.87, "unit": "%"}, {"measurement": "IC50", "setting": "[7]; Example C (Table 3), hydrochloride, read-out: IC 50 against SARS-COV-2 Induced Cytopathic Effect in Vero E6 Cells", "result": "> 150", "unit": "µM"}, {"measurement": "IC50", "setting": "[7]; Severe acute respiratory syndrome coronavirus 2, Vero C1008, Example C (Table 3), read-out: IC 50 against SARS-COV-2 Induced Cytopathic Effect in Vero E6 Cells", "result": "≥ 150", "unit": "µM"}, {"measurement": "IC50", "setting": "[7]; Severe acute respiratory syndrome coronavirus 2, Vero C1008, Vero E6, Example B, highest concentration tested 30 μM, read-out: IC50 against SARS-CoV-2 infection induced CPE", "result": "> 30", "unit": "µM"}, {"measurement": "inhibition at 30 µM", "setting": "[7]; Severe acute respiratory syndrome coronavirus 2, Vero C1008, at 30 μM, Example B, read-out: inhibition of SARS-CoV-2 induced CPE at maximum concentration", "result": 14.2, "unit": "%"}]}
